The source of these data is patent US6949574B2 (Bristol-Myers Squibb Company, priority 2002, dated 2005).

One assay has as its target T1, human FAAH (Homo sapiens, UniProt O00519).
T1 construct: expressed in transfected cells; host or cells: H4 cells (H4-FAAH, Geneticin-selected); crude membrane homogenates
T1 sequence (O00519 1-579): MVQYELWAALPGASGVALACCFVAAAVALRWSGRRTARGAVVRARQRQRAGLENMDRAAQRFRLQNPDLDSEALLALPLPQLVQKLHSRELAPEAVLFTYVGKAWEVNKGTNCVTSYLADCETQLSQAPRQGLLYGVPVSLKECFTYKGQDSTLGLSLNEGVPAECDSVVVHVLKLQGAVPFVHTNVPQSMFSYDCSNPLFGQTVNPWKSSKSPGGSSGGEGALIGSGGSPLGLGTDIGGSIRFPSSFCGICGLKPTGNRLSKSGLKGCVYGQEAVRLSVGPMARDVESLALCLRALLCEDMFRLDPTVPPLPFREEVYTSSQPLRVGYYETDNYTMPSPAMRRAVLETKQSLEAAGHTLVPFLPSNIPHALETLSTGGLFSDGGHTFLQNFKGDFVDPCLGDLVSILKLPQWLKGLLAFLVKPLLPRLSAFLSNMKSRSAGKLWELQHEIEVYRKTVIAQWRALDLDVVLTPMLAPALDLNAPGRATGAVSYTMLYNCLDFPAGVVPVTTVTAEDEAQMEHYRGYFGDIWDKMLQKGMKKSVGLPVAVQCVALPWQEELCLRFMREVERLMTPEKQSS
The assay can be described thus: FAAH activity in membrane homogenates of H4-FAAH cells, [3H]-anandamide hydrolysis. It counts as biochemical.
Conditions: not given
Here is the method:
Homogenates of crude membranes were prepared from H4 cells that express transfected human FAAH (H4-FAAH cells). Briefly, cells were grown in DMEM supplemented with 10% FBS and Geneticin at a final concentration of 500 μg/ml (Gibco BRL, Rockville, Md.). Confluent cultures of H4-FAAH cells were rinsed twice with phosphate-buffered saline [138 mM NaCl, 4.1 mM KCl, 5.1 mM Na2PO4, 1.5 mM KH2PO4 (pH 7.5), 37° C.] and incubated for 5 to 10 minutes at 4° C. in lysis buffer [1 mM sodium bicarbonate]. Cells were transferred from plates to polypropylene tubes (16×100 mm), homogenized and centrifuged at 32,000×g for 30 minutes. Pellets were resuspended by homogenization in lysis buffer and centrifuged at 32,000×g for 30 minutes. Pellets were resuspended in lysis buffer (15-20 μg protein/ml) then stored at −80° C. until needed. On the day of an experiment, membranes were diluted to 2.67 μg protein/ml in 125 mM Tris-Cl, pH 9.0.
Activity of FAAH was measured using a modification of the method described by Omeir et al., 1995 (Life Sci 56:1999, 1995). Membrane homogenates (240 ng protein) were incubated at room temperature for one hour with 1.67 nM anandamide [ethanolamine 1-^3H] (available from American Radiolabeled Chemical Inc., St Louis, Mo.) and 10 μM anandamide (available from Sigma/RBI, St. Louis, Mo.) in the absence and presence of inhibitors. The reaction was stopped by the addition of 1 volume of a solution of 1:1 methanol and dichloroethane. The mixture was shaken and then centrifuged at 1000×g for 15 minutes to separate the aqueous and organic phases. An aliquot of the aqueous phase, containing [^3H]-ethanolamine was withdrawn and counted by scintillation spectroscopy. Data were expressed as the percentage of [^3H]-ethanolamine formed versus vehicle, after subtraction of the background radioactivity determined in the presence of 10 μM arachidonyl trifluoromethyl ketone (ATFMK), an inhibitor of FAAH. IC50 values were determined using a four-parameter logistic equation for dose-response curves.
What is called IC50 is the concentration needed to halve the response being measured. Turning to `CCCCCCCCCOc1ccc(NC(=O)O/N=C/c2cccnc2)cc1` [Example 4, 3-Pyridinecarboxaldehyde, O-[[[4-(nonyloxy)phenyl]amino]carbonyl]oxime], the IC50 is under 0.01 µM.

`CCCCCOc1ccc(NC(=O)O/N=C/c2ccccc2)cc1` [Example 11, Benzaldehyde, O-[[(4-pentyloxyphenyl)amino]carbonyl]oxime] showed an IC50 of under 0.01 µM.

With `CCCCCOc1ccc(NC(=O)O/N=C/c2ccc(F)cc2)cc1` [Example 14, 4-Fluorobenzaldehyde, O-[[(4-pentyloxyphenyl)amino]carbonyl]oxime], the IC50 was under 0.01 µM.

The assay is the same for the next values; noted with them: H4-FAAH cell membranes, 10 μM anandamide, room temperature, one hour; read-out: IC50.
Consider `CCCCCCCOc1ccc(NC(=O)O/N=C/c2cccnc2)cc1` [Example 1, 3-Pyridinecarboxaldehyde, O-[[[4-(Heptyloxy)phenyl]amino]carbonyl]oxime], for which the IC50 was under 0.01 µM.

As to `CCCCOc1ccc(CNC(=O)Oc2cccnc2)cc1` [Example 2, (4-Butoxyphenyl)methylcarbamic acid, 3-pyridinyl ester], the IC50 is under 0.01 µM.

For the compound `CCCCCCCCCCCOc1ccc(NC(=O)O/N=C/c2cccnc2)cc1` [Example 3, 3-Pyridinecarboxaldehyde, O-[[[4-(undecyloxy)phenyl]amino]carbonyl]oxime], the IC50 was under 0.01 µM.

`CCOc1ccc(NC(=O)ON=C(C)C)cc1` [Example 6, 2-Propanone, O-[[(4-ethoxyphenyl)amino]carbonyl]oxime]: the IC50 fell in the range of 0.101 to 0.5 µM.

Take `CCCOc1ccc(NC(=O)ON=C(C)C)cc1` [Example 7, 2-Propanone, O-[[(4-propoxyphenyl)amino]carbonyl]oxime]: the IC50 was in the range of 0.101 to 0.5 µM.

As for `CCCCCOc1ccc(NC(=O)ON=C(C)C)cc1` [Example 8, 2-Propanone, O-[[(4-pentyloxyphenyl)amino]carbonyl]oxime], the IC50 fell in the range of 0.01 to 0.1 µM.

Take `CCOc1ccc(NC(=O)O/N=C/c2ccccc2)cc1` [Example 9, Benzaldehyde, O-[[(4-ethoxyphenyl)amino]carbonyl]oxime]: the IC50 was in the range of 0.01 to 0.1 µM.

As to `CCCOc1ccc(NC(=O)O/N=C/c2ccccc2)cc1` [Example 10, Benzaldehyde, O-[[(4-propoxyphenyl)amino]carbonyl]oxime], the IC50 was under 0.01 µM.

As for `CCOc1ccc(NC(=O)O/N=C/c2ccc(F)cc2)cc1` [Example 12, 4-Fluorobenzaldehyde, O-[[(4-ethoxyphenyl)amino]carbonyl]oxime], the half-inhibitory concentration (IC50) is 0.01 to 0.1 µM.

As to `CCCOc1ccc(NC(=O)O/N=C/c2ccc(F)cc2)cc1` [Example 13, 4-Fluorobenzaldehyde, O-[[(4-propoxyphenyl)amino]carbonyl]oxime], the IC50 was in the range of 0.01 to 0.1 µM.

Consider `CCOc1ccc(NC(=O)O/N=C/c2cccnc2)cc1` [Example 15, 3-Pyridinecarboxaldehyde, O-[[(4-ethoxyphenyl)amino]carbonyl]oxime], for which the IC50 was 0.101 to 0.5 µM.

Consider `CCCOc1ccc(NC(=O)O/N=C/c2cccnc2)cc1` [Example 16, 3-Pyridinecarboxaldehyde, O-[[(4-propoxyphenyl)amino]carbonyl]oxime], for which the IC50 lay within 0.01 to 0.1 µM.

With `CCCCCOc1ccc(NC(=O)O/N=C/c2cccnc2)cc1` [Example 17, 3-Pyridinecarboxaldehyde, O-[[(4-pentyloxyphenyl)amino]carbonyl]oxime], the IC50 is under 0.01 µM.

Consider `CCCCOc1ccc(NC(=O)ON=C(C)C)cc1OC` [Example 18, 2-Propanone, O-[[(4-butoxy-3-methoxyphenyl)amino]carbonyl]oxime], for which the IC50 is over 0.5 µM.

On to `CCCCOc1ccc(NC(=O)O/N=C/c2ccccc2)cc1OC` [Example 19, Benzaldehyde, O-[[(4-butoxy-3-methoxyphenyl)amino]carbonyl]oxime], for which the IC50 is 0.101 to 0.5 µM.

As to `CCCCOc1ccc(NC(=O)O/N=C/c2ccc(F)cc2)cc1OC` [Example 20, 4-Fluorobenzaldehyde, O-[[(4-butoxy-3-methoxyphenyl)amino]carbonyl]oxime], the IC50 is 0.101 to 0.5 µM.

Regarding `CCCCOc1ccc(NC(=O)O/N=C/c2cccnc2)cc1OC` [Example 21, 3-Pyridinecarboxaldehyde, O-[[(4-butoxy-3-methoxyphenyl)amino]carbonyl]oxime], the IC50 is over 0.5 µM.

As to `CCCCCCOc1ccc(NC(=O)ON=C(C)C)cc1` [Example 22, 2-Propanone, O-[[(4-hexyloxyphenyl)amino]carbonyl]oxime], the IC50 is 0.01 to 0.1 µM.

For the compound `CCCCCCOc1ccc(NC(=O)O/N=C/c2ccccc2)cc1` [Example 23, Benzaldehyde, O-[[(4-hexyloxyphenyl)amino]carbonyl]oxime], the half-maximal inhibitory concentration (IC50) was under 0.01 µM.

Consider `CCCCCCOc1ccc(NC(=O)O/N=C/c2ccc(F)cc2)cc1` [Example 24, 4-Fluorobenzaldehyde, O-[[(4-hexyloxyphenyl)amino]carbonyl]oxime], for which the IC50 is under 0.01 µM.

With `CCCCCCOc1ccc(NC(=O)O/N=C/c2cccnc2)cc1` [Example 25, 3-Pyridinecarboxaldehyde, O-[[(4-hexyloxyphenyl)amino]carbonyl]oxime], the IC50 was under 0.01 µM.

Turning to `CCCCCCCOc1ccc(NC(=O)ON=C(C)C)cc1` [Example 26, 2-Propanone, O-[[(4-heptyloxyphenyl)amino]carbonyl]oxime], the IC50 was under 0.01 µM.

Consider `CCCCCCCOc1ccc(NC(=O)O/N=C/c2ccccc2)cc1` [Example 27, Benzaldehyde, O-[[(4-heptyloxyphenyl)amino]carbonyl]oxime], for which the IC50 is under 0.01 µM.

On to `CCCCCCCOc1ccc(NC(=O)O/N=C/c2ccc(F)cc2)cc1` [Example 28, 4-Fluorobenzaldehyde, O-[[(4-heptyloxyphenyl)amino]carbonyl]oxime], for which the IC50 was under 0.01 µM.

Regarding `CCCCCCCCOc1ccc(NC(=O)ON=C(C)C)cc1` [Example 29, 2-Propanone, O-[[(4-octyloxyphenyl)amino]carbonyl]oxime], the IC50 is under 0.01 µM.

In the case of `CCCCCCCCOc1ccc(NC(=O)O/N=C/c2cccnc2)cc1` [Example 30, 3-Pyridinecarboxaldehyde, O-[[(4-octyloxyphenyl)amino]carbonyl]oxime], the IC50 was under 0.01 µM.

Turning to `CCCCCCCCCOc1ccc(NC(=O)ON=C(C)C)cc1` [Example 31, 2-Propanone, O-[[(4-nonyloxyphenyl)amino]carbonyl]oxime], the IC50 was under 0.01 µM.

For the compound `CCCCCCCCCCOc1ccc(NC(=O)ON=C(C)C)cc1` [Example 32, 2-Propanone, O-[[(4-decyloxyphenyl)amino]carbonyl]oxime], the IC50 was under 0.01 µM.

Turning to `CCCCCCCCCCOc1ccc(NC(=O)O/N=C/c2ccccc2)cc1` [Example 33, Benzaldehyde, O-[[(4-decyloxyphenyl)amino]carbonyl]oxime], the IC50 was under 0.01 µM.

`CCCCCCCCCCOc1ccc(NC(=O)O/N=C/c2ccc(F)cc2)cc1` [Example 34, 4-Fluorobenzaldehyde, O-[[(4-decyloxyphenyl)amino]carbonyl]oxime]: the IC50 is under 0.01 µM.

Regarding `CCCCCCCCCCOc1ccc(NC(=O)O/N=C/c2cccnc2)cc1` [Example 35, 3-Pyridinecarboxaldehyde, O-[[(4-decyloxyphenyl)amino]carbonyl]oxime], the IC50 is under 0.01 µM.

In the case of `CCCCCCCCCCCOc1ccc(NC(=O)ON=C(C)C)cc1` [Example 36, 2-Propanone, O-[[(4-undecyloxyphenyl)amino]carbonyl]oxime], the IC50 is under 0.01 µM.

Take `CCCCCCCCCCCOc1ccc(NC(=O)O/N=C/c2ccccc2)cc1` [Example 37, Benzaldehyde, O-[[(4-undecyloxyphenyl)amino]carbonyl]oxime]: the IC50 was under 0.01 µM.

Regarding `CCCCCCCCCCCOc1ccc(NC(=O)O/N=C/c2ccc(F)cc2)cc1` [Example 38, 4-Fluorobenzaldehyde, O-[[(4-undecyloxyphenyl)amino]carbonyl]oxime], the IC50 is under 0.01 µM.

For the compound `CCCCOc1ccc(NC(=O)O/N=C/c2ccccc2)cc1` [Example 39, Benzaldehyde, O-[[(4-butoxyphenyl)amino]carbonyl]oxime], the IC50 is under 0.01 µM.
